From PMC12735921, “Evaluation of Antiproliferative Activity and Molecular Modeling Studies of Some Novel Benzimidazolone-Bridged Hybrid Compounds” (Pharmaceuticals, 2025)
“And” between values parts separate entries of the source, which are not always exact repeats. Equal entries are not always repeated. Marks after values point to notes of the source that are not given here.

How the values were obtained:
A549 cells [1] = experiment: LDH leakage assay, A549; format: cell-based, human; conditions: A549, IC50 concentration of compound, 48 h; H2O2 positive control; mean ± SD, n = 3
Procedure: (§1) One hundred microliters of culture medium was transferred to a new 96-well plate. One hundred microliters of LDH reaction solution was added to each well, and absorbance was measured at 490 nm using an ELISA plate reader (BMG Labtech, Ortenberg, Germany) after 30 min.

A549 cells [2] = experiment: Total oxidative status (TOS), A549; format: cell-based, human; conditions: A549, IC50 concentration of compound, 48 h; H2O2 250 µM positive control; mean ± SD, n = 3
Procedure: (§2) TOS were evaluated using a commercially available kit (Rel Assay Diagnostics®, Gaziantep, Turkey) according to the manufacturer’s instructions. […] The TOS assay quantifies oxidizing agents based on their ability to convert an iron (II) ion chelator complex to iron (III) ions. The results were calibrated against hydrogen peroxide (H2O2, 250 µM) as a positive control for 48 h and expressed as µmol H2O2 equivalents per liter. The analysis was performed in three independent biological replicates (n = 3).

HEK 293 cells = experiment: MTT cell viability assay, non-cancerous HEK 293; format: cell-based, human; conditions: Homo sapiens, HEK293, 48 h, mean ± SD, n = 3
Summary of the method: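 Cells grown in DMEM/10% FBS were seeded at 1 × 10^5 cells/mL and exposed to compounds at 0.5–200 µM for 48 h. Formazan was dissolved in DMSO and read at 570 nm, with cytotoxicity expressed relative to untreated control (0%). IC50 came from a four-parameter logistic fit, averaged over three independent runs.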

HeLa cells [3] = experiment: LDH leakage assay, HeLa; format: cell-based, human; conditions: IC50 concentration of compound, 48 h, H2O2 positive control, mean ± SD, n = 3
Procedure: as §1

[4] = test system: A549, MCF-7, and HeLa cells; experiment: MTT cell viability assay, ranges stated across the cancer cell lines; format: cell-based; conditions: Homo sapiens, range over the three cancer cell lines, 48 h
Procedure: Cell viability assay was performed on the human lung cancer (A549) (ATCC CCL-185), human breast cancer (MCF-7) (ATCC-HTB-22), cervical cancer (HeLa) (ATCC-CCL-2), and human embryonic kidney 293 (HEK293) (ATCC-CRL-1573) cell lines, which were purchased from Deutsche Sammlung von Mikroorganismen und Zellkulturen (DSMZ, Braunschweig, Germany). The cells were maintained in Dulbecco’s modified Eagle’s medium (DMEM), supplemented with 10% fetal bovine serum (FBS), 2 mM L-glutamine, 100 U/mL penicillin, and 100 mg/L streptomycin (Biochrom AG, Berlin, Germany) at 37 °C in a humidified atmosphere of 5% CO2.
The cytotoxic effect was determined by the MTT (3-(4,5-dimethyl-2-thiazolyl)-2,5-diphenyl-2H-tetrazolium bromide) cell viability assay. Cells were seeded at an initial concentration of 1 × 10^5 cells/mL in 96-well microplates. […] After the incubation period, the formed formazan crystals were dissolved in dimethyl sulfoxide (DMSO), and the optical density (OD) of the compounds was measured at 570 nm using a spectrophotometer (BMG Labtech, Ortenberg, Germany). Cytotoxicity was expressed as an increase in the mean percentage of cytotoxicity relative to the unexposed control ± standard deviation (SD). […] IC50 was calculated by fitting the data to a sigmoidal curve using a four-parameter logistic model and was presented as an average of three independent measurements. […]

A549 cells [5] = experiment: MTT cell viability assay, A549; format: cell-based, human
Summary of the method: (§3)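 Cells exposed to compounds at 0.5–200 µM for 48 h in DMEM with 10% FBS at 37 °C, 5% CO2; formazan dissolved in DMSO and read at 570 nm. Cytotoxicity relative to untreated control; IC50 from four-parameter logistic fit, mean of three independent measurements, triplicate samples.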

HeLa cells [6] = experiment: Total oxidative status (TOS), HeLa; format: cell-based, human; conditions: IC50 concentration of compound, 48 h, H2O2 250 µM positive control, mean ± SD, n = 3
Procedure: as §2

A549 cells [7] = experiment: Cell cycle analysis (PI staining, flow cytometry), A549; format: cell-based, human; conditions: A549, IC50 concentration, 48 h, mean ± SEM, n = 3
Procedure: Cell cycle distribution was assessed by propidium iodide (PI) staining and flow cytometry. HeLa, MCF-7, and A549 cells were seeded in 6-well plates at a density of 1 × 10^5 cells per well and allowed to attach overnight. […] Following exposure, both adherent and floating cells were collected, washed twice with cold phosphate-buffered saline (PBS, pH 7.4), and fixed overnight in 70% cold ethanol at 4 °C. After fixation, the cells were centrifuged and resuspended in 500 µL of PI/RNase staining solution containing 50 µg/mL PI and 100 µg/mL RNase A (Sigma-Aldrich®, St. Louis, MO, USA), followed by incubation in the dark for 30 min at 37 °C. The stained samples were analyzed using a Muse™ Cell Analyzer (Merck, Millipore, Germany) equipped with a 488 nm excitation laser and a 617 nm emission filter. A minimum of 10,000 events per sample were acquired after exclusion of debris and doublets via FSC-A vs. FSC-H gating. The DNA content histograms were generated automatically, and cell populations were expressed as percentages of G0/G1, S, and G2/M phases using the Muse™ Cell Cycle Analysis Software 1.5.0.0. All assays were conducted in triplicate biological repeats (n = 3), and results were reported as mean ± SEM.

MCF-7 cells = experiment: Total oxidative status (TOS), MCF-7; format: cell-based, human; conditions: MCF-7, IC50 concentration of compound, 48 h; H2O2 250 µM positive control; mean ± SD, n = 3
Procedure: as §2

HeLa cells [8] = experiment: MTT cell viability assay, HeLa; format: cell-based, human
Summary of the method: as §3

O=C(O)Cn1c(=O)n(CC(=O)O)c2cc(Cl)c(Cl)cc21 [Compound 6, 2,2′-(5,6-Dichloro-2-oxo-1H-benzo[d]imidazole-1,3(2H)-diyl)diacetic Acid]
LDH (A549 cells [1]): 24.5 ± 2.0 µU/mL and 24.5 ± 2.0 ^a,b µU/mL | TOS (A549 cells [2]): 7.3 ± 0.5 ^a,b µmol H2O2 eq/L | IC50 (HEK 293 cells): 62.7 ± 3.62 µM | LDH (HeLa cells [3]): 27.3 ± 2.5 µU/mL and 27.3 ± 2.5 ^a,b µU/mL | IC50 [4]: 28.3 to 31.2 µM | IC50 (A549 cells [5]; Homo sapiens, A549, MTT, 48 h, mean ± SD, n = 3): 30.6 ± 1.76 µM | A549 Selectivity Index (SI) (A549 cells [5]; SI = IC50 (HEK 293)/IC50 (A549)): 2.04 | TOS (HeLa cells [6]): 7.8 ± 0.6 µmol H2O2 eq/L and 7.8 ± 0.6 ^a,b µmol H2O2 eq/L | cells in G0/G1 phase (A549 cells [7]): 59.8 ± 2.0% | cells in G2/M phase (A549 cells [7]): 19.6 ± 1.4% | cells in S phase (A549 cells [7]): 20.6 ± 1.5% | TOS (MCF-7 cells): 6.9 ± 0.5 µmol H2O2 eq/L and 6.9 ± 0.5 ^a,b µmol H2O2 eq/L | IC50 (HeLa cells [8]; Homo sapiens, HeLa, MTT, 48 h, mean ± SD, n = 3): 31.2 ± 1.8 µM | HeLa Selectivity Index (SI) (HeLa cells [8]; SI = IC50 (HEK 293)/IC50 (HeLa)): 2
